Laboratory results from PMC10618370, “Mur ligase F as a new target for the flavonoids quercitrin, myricetin, and (–)-epicatechin” (Journal of Computer-Aided Molecular Design, 2023).
Read-outs that look alike come from different tables or passages of the source.

What was measured:
E. coli MurF = E. coli MurF (Escherichia coli, UniProt P11880); assay: MurF inhibition assay (Malachite green); type: biochemical; conditions: for remaining activity at 100 µM: 0.25 h, residual activity at 100 µM compound, mean ± SD of three independent experiments, read-out: RA (%) @ 100 µM MurF
Chain of E. coli MurF (P11880 whole entry): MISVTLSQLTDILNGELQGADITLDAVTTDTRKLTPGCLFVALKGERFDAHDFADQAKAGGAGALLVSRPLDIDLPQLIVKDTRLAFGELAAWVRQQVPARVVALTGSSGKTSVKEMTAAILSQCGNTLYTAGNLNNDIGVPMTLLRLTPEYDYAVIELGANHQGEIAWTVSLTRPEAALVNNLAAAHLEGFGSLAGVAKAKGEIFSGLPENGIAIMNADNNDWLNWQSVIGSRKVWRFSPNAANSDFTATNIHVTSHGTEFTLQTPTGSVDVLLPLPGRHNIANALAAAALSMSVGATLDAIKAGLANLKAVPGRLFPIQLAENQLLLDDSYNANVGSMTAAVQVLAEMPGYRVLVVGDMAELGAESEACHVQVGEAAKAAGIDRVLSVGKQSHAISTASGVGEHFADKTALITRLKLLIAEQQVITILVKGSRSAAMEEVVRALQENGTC
Procedure: (§1) Inhibition of the Mur ligases was determined using the Malachite green assay, with slight modifications. […] In all cases, the final concentration of DMSO was 5% (v/v).
(§2) After incubation for 15 min at 37 °C, the enzyme reaction was terminated by the addition of 100 µM Biomol green reagent®, and the absorbance was measured at 650 nm after 5 min. Experiments to determine the RA run in triplicate. Residual activities were calculated with respect to control assays without the tested compounds, but with the 5% DMSO carrier. The IC50 values were determined by measuring the residual activities at seven different compound concentrations, and they represent the concentration of the compound at which the residual activity was 50%. IC50 values were obtained by plotting the residual enzyme activities against the applied inhibitor concentrations, fitting the experimental data to the 4-parameter Hill equation: Y=Bottom-Top-Bottom/1+10^logIC50-X×HillSlope , where X is the logarithm of the inhibitor concentration, and Y is the residual activity. The IC50 values were determined in three independent experiments. GraphPad Prism 8.2.0 (GraphPad Software, San Diego, CA, USA) was used for the fitting procedure.
(§3) The assay detects the phosphate formed in each enzyme reaction. To avoid any possibility of the compounds inhibiting the enzymes due to aggregation, a detergent (0.005% Triton-X114) was added to the test system.

E. coli MurC = E. coli MurC (Escherichia coli, UniProt P17952); assay: MurC inhibition assay (Malachite green); type: biochemical; conditions: 0.25 h, read-out: RA (%) @ 100 µM MurC
Chain of E. coli MurC (P17952 whole entry): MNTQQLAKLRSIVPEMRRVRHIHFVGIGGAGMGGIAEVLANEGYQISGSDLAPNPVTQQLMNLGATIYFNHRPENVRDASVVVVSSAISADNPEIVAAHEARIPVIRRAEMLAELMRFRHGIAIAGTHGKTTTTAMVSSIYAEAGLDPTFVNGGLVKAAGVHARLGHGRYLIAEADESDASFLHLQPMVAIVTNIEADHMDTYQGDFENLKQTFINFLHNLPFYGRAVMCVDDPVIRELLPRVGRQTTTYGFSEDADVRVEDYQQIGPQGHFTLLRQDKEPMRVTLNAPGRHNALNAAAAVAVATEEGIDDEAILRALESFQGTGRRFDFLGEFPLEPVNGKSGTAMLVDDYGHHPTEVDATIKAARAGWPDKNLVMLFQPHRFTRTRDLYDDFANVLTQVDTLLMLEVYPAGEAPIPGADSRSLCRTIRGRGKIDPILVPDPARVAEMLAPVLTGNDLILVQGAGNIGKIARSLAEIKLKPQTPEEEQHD
Procedure: as §1, §2, §3

E. coli MurD = E. coli MurD (Escherichia coli, UniProt P14900); assay: MurD inhibition assay (Malachite green); type: biochemical; conditions: 0.25 h, read-out: RA (%) @ 100 µM MurD
Chain of E. coli MurD (P14900 whole entry): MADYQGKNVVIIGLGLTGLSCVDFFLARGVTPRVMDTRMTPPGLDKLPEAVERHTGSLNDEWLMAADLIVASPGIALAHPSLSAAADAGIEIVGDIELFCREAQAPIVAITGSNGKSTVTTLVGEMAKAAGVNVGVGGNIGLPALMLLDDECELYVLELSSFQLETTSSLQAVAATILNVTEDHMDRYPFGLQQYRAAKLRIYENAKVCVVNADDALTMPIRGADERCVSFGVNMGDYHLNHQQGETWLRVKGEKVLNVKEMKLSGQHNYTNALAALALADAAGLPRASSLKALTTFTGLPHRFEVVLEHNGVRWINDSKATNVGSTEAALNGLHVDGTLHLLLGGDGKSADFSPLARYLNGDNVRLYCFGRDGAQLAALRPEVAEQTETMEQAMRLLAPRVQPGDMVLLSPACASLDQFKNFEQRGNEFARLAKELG
Procedure: as §1, §2, §3

E. coli MurE = E. coli MurE (Escherichia coli, UniProt P22188); assay: MurE inhibition assay (Malachite green); type: biochemical; conditions: 0.25 h, read-out: RA (%) @ 100 µM MurE
Chain of E. coli MurE (P22188 whole entry): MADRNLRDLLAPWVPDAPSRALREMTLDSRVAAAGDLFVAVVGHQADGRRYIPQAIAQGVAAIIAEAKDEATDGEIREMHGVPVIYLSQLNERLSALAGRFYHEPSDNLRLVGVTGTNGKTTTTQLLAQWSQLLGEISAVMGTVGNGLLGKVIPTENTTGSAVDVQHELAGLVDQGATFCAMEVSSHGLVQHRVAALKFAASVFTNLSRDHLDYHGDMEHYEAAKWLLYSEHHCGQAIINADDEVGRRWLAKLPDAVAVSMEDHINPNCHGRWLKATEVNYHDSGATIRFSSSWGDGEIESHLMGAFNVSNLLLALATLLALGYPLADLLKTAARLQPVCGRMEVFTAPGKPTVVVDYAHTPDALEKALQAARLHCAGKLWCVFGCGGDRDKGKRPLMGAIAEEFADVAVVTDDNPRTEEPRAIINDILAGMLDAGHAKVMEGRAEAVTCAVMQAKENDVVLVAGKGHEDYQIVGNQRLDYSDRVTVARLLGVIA
Procedure: as §1, §2, §3

S. aureus (ATCC 29,213) = assay: Antibacterial assay, broth microdilution MIC; type: cell-based; conditions: for MIC: Staphylococcus aureus
Procedure: (§4) Antimicrobial testing was performed by the broth microdilution method in 96-well plates following the Clinical and Laboratory Standards Institute guidelines and European Committee on Antimicrobial Susceptibility Testing recommendations (Clinical and Laboratory Standards Institute). Bacterial suspensions equivalent to 0.5 McFarland turbidity standard were diluted with cation-adjusted Mueller–Hinton broth with TES buffering (ThermoFisher Scientific), for a final inoculum of 10^5 CFU/ mL. Compounds dissolved in DMSO and the inoculum were mixed and incubated for 20 h at 35 °C. […] The MICs were determined against two reference bacterial strains, S. aureus (ATCC 29,213) and E. coli (ATCC 25,922). Tetracycline was used as the positive control on every assay plate, with MICs of 0.5 and 1 µg/mL for S. aureus and E. coli, respectively. All MICs were determined in three independent experiments.

E. coli (ATCC 25,922) = assay: Antibacterial assay, broth microdilution MIC; type: cell-based; conditions: for MIC: Escherichia coli
Procedure: as §4

[1] = residual activity at 100 µM compound, mean ± SD of three independent experiments
[2] = ATCC29, broth microdilution, 20 h at 35 °C, read-out: MIC S.aureus
[3] = ATCC25, broth microdilution, 20 h at 35 °C, read-out: MIC E.coli

| Compound | remaining activity at 100 µM (E. coli MurF) [%] | remaining activity at 100 µM (E. coli MurC; [1]) [%] | remaining activity at 100 µM (E. coli MurD; [1]) [%] | remaining activity at 100 µM (E. coli MurE; [1]) [%] | MIC (S. aureus (ATCC 29,213); [2]) [µM] | MIC (E. coli (ATCC 25,922); [3]) [µM] | MIC (S. aureus (ATCC 29,213); ATCC29, broth microdilution, 20 h at 35 °C, read-out: MIC S. aureus) [µM] | Inhibition of growth of S. aureus (in words) (S. aureus (ATCC 29,213); broth microdilution) | MIC (S. aureus (ATCC 29,213); ATCC29, positive control on every assay plate, read-out: MIC S. aureus, positive control) [µg/mL] | MIC (E. coli (ATCC 25,922); ATCC25, positive control on every assay plate, read-out: MIC E. coli, positive control) [µg/mL] | MIC (S. aureus (ATCC 29,213); ATCC29, 20 h, read-out: MIC S.aureus) [µM] | MIC (E. coli (ATCC 25,922); ATCC25, 20 h, read-out: MIC E.coli) [µM] | remaining activity at 100 µM (E. coli MurC) [%] | remaining activity at 100 µM (E. coli MurD) [%] | remaining activity at 100 µM (E. coli MurE) [%] | IC50 (E. coli MurF; seven compound concentrations, 4-parameter Hill fit, three independent experiments) [µM] | Inhibition of growth of E. coli (in words) (E. coli (ATCC 25,922); broth microdilution) |
| --- | --- | --- | --- | --- | --- | --- | --- | --- | --- | --- | --- | --- | --- | --- | --- | --- | --- |
| Oc1cc(O)c2c(c1)O[C@H](c1ccc(O)c(O)c1)[C@@H](O)C2 [Compound 22, (+)-catechin] | 100 ± 10 | 100 ± 10 | 93 ± 8 | 88 ± 8 | > 250 | > 250 |  |  |  |  |  |  |  |  |  |  |  |
| COc1cc(O)c(CC=C(C)C)c(O)c1C(=O)/C=C/c1ccc(O)cc1 [Compound 23, xanthohumol] | 72 ± 8 | 86 ± 8 | 91 ± 10 | 82 ± 7 | 31 | > 250 | 31 | inhibit the growth |  |  |  |  |  |  |  |  |  |
| O=c1c(O)c(-c2ccccc2)oc2cc(O)cc(O)c12 [Compound 16] | 100 ± 10 | 100 ± 8 | 91 ± 7 | 100 ± 10 | 250 | > 250 |  | inhibit the growth |  |  |  |  |  |  |  |  |  |
| O=C1C[C@@H](c2ccc(O)cc2)Oc2cc(O)cc(O)c21 [Compound 5] | 87 ± 9 | 97 ± 8 | 100 ± 9 | 98 ± 9 | > 250 | > 250 |  |  |  |  |  |  |  |  |  |  |  |
| CC(C)=CCc1c(O)cc(O)c2c1O[C@H](c1ccc(O)cc1)CC2=O [Compound 3] | 71 ± 7 | 95 ± 10 | 100 ± 8 | 87 ± 9 | 62 | > 250 |  | inhibit the growth |  |  |  |  |  |  |  |  |  |
| COc1cc(O)c2c(=O)c(O)c(-c3ccc(O)c(O)c3)oc2c1 [Compound 13] | 51 ± 6 | 66 ± 7 | 71 ± 8 | 82 ± 8 | > 250 | > 250 |  |  |  |  |  |  |  |  |  |  |  |
| Cc1c(O)cc(O)c2c1O[C@H](c1ccccc1)CC2=O [Compound 4] | 88 ± 9 | 91 ± 9 | 97 ± 8 | 100 ± 9 | > 250 | > 250 |  |  |  |  |  |  |  |  |  |  |  |
| CC1OC(Oc2c(-c3cc(O)c(O)c(O)c3)oc3cc(O)cc(O)c3c2=O)C(O)C(O)C1O (stereo not drawn) [Compound 11] | 86 ± 9 | 97 ± 7 | 89 ± 7 | 100 ± 10 | > 250 | > 250 |  |  |  |  |  |  |  |  |  |  |  |
| CN(C)[C@@H]1C(O)=C(C(N)=O)C(=O)[C@@]2(O)C(O)=C3C(=O)c4c(O)cccc4[C@@](C)(O)[C@H]3C[C@@H]12 [Tetracycline, reference compound] |  |  |  |  |  |  |  |  | 0.5 | 1 |  |  |  |  |  |  |  |
| O=c1c(O[C@@H]2O[C@H](CO)[C@@H](O)[C@H](O)[C@H]2O)c(-c2ccc(O)c(O)c2)oc2cc(O)cc(O)c12 [Compound 8] | 88 ± 9 | 95 ± 9 | 100 ± 9 | 97 ± 8 | > 250 | > 250 |  |  |  |  |  |  |  |  |  |  |  |
| CC1OC(OCC2OC(Oc3c(-c4ccc(O)c(O)c4)oc4cc(O)cc(O)c4c3=O)C(O)C(O)C2O)C(O)C(O)C1O (stereo not drawn) [Compound 7] | 89 ± 10 | 100 ± 10 | 97 ± 9 | 100 ± 10 | > 250 | > 250 |  |  |  |  |  |  |  |  |  |  |  |
| COc1cc(OC)c2c(=O)cc(-c3ccc(OC)c(OC)c3)oc2c1 [Compound 19] | 100 ± 9 | 100 ± 9 | 100 ± 10 | 100 ± 9 |  |  |  |  |  |  | > 250 | > 250 |  |  |  |  |  |
| O=c1c(O)c(-c2ccc(O)c(O)c2)oc2cc(O)cc(O)c12 [Compound 14, Quercetin] |  |  |  |  | 250 | > 250 |  | inhibit the growth |  |  |  |  | 41 ± 5 | 43 ± 6 | 28 ± 4 |  |  |
| O=c1c(OC2OC(CO)C(O)C(O)C2O)c(-c2ccc(O)c(O)c2)oc2cc(O)cc(O)c12 (stereo not drawn) [Compound 9] | 90 ± 8 | 89 ± 8 | 100 ± 8 | 100 ± 8 | > 250 | > 250 |  |  |  |  |  |  |  |  |  |  |  |
| O=c1cc(-c2ccc(O)c(O)c2)oc2cc(OC3OC(CO)C(O)C(O)C3O)cc(O)c12 (stereo not drawn) [Compound 15] | 92 ± 9 | 100 ± 9 | 75 ± 6 | 100 | > 250 | > 250 |  |  |  |  |  |  |  |  |  |  |  |
| O=c1cc(-c2ccccc2)oc2cc(O)cc(O)c12 [Compound 17] | 100 ± 8 | 100 ± 10 | 71 ± 9 | 83 ± 8 | > 250 | > 250 |  |  |  |  |  |  |  |  |  |  |  |
| O=c1c(O)c(-c2cc(O)c(O)c(O)c2)oc2cc(O)cc(O)c12 [Compound 12, myricetin] |  | 87 ± 8 | 87 ± 9 | 66 ± 7 | > 250 | > 250 |  | inactive |  |  |  |  |  |  |  | 139 ± 13 | inactive |
| COc1cc(O)c(CC=C(C)C)c2c1C(=O)C[C@@H](c1ccc(O)cc1)O2 [Compound 2] | 78 ± 9 | 86 ± 8 | 100 ± 10 | 77 ± 7 | 250 | > 250 |  | inhibit the growth |  |  |  |  |  |  |  |  |  |
